Source: patent US5432261A, “Motlin-like polypeptide and use thereof” (priority 1989, dated 1995)
Like-named read-outs stand apart in the source and are kept apart here. Square brackets hold non-standard residues; d marks the D form. Peptide text beside a SMILES is read from it. hSer = N[C@@H](CCO)C(=O)O

Target: upper small intestine of rabbit (Oryctolagus cuniculus, UniProt G1T803)
Assay: Intestinal contraction activity by Magnus method using upper small intestine of rabbit
Experimental: An intestinal contraction activity was measured by Magnus method using upper small intestine of rabbit ["J. Pharm. Pharmac.", Vol. 28, pages 650-651 (1976)], on each motilin-like polypeptides (Example 1, wherein R1 is Hse, Asp-Gly-Ile-Phe-Hse, or Arg-Ile-Phe-Hse) according to the invention, as test samples and a conventional pure [Leu^13 ]-motilin, as control sample. The activities of the test samples and control sample were compared, under assumption of that an contraction activity caused by 10^-6 M acetylcholine is 100%.

upper small intestine of rabbit, sequence (G1T803 1-400): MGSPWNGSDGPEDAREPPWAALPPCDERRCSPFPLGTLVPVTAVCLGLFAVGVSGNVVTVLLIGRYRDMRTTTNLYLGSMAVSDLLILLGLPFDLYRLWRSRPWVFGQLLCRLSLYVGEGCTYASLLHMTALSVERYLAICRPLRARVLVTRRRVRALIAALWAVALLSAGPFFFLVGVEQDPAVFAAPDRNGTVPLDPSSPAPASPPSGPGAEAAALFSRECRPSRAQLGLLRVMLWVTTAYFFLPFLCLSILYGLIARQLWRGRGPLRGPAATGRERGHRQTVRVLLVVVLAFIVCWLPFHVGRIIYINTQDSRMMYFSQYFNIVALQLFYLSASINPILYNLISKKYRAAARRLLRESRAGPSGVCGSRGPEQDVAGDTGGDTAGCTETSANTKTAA

| Activity in vitro (%) | Structure (SMILES) | Activity in vitro (%) (Magnus method, from ED50, contraction activity of native motilin = 100%) |
| --- | --- | --- |
| 110 | CC[C@H](C)[C@H](NC(=O)[C@H](CCC(=O)O)NC(=O)CNC(=O)[C@H](Cc1ccc(O)cc1)NC(=O)[C@@H](NC(=O)[C@H](Cc1ccccc1)NC(=O)[C@@H](NC(=O)[C@@H]1CCCN1C(=O)[C@@H](NC(=O)[C@@H](N)Cc1ccccc1)C(C)C)[C@@H](C)CC)[C@@H](C)O)C(=O)N[C@@H](CCC(N)=O)C(=O)N[C@@H](CCCNC(=N)N)C(=O)N[C@@H](CC(C)C)C(=O)N[C@@H](CCC(N)=O)C(=O)N[C@@H](CCC(=O)O)C(=O)N[C@@H](CCCCN)C(=O)N[C@@H](CCC(=O)O)C(=O)N[C@@H](CCCNC(=N)N)C(=O)N[C@@H](CC(N)=O)C(=O)N[C@@H](CCCCN)C(=O)NCC(=O)N[C@@H](CCC(N)=O)C(=O)N[C@@H](CCO)C(=O)O [(10) -Ile--Leu--Hse] (H-FVPIFTYGEIQRLQEKERNKGQ[hSer]-OH) |  |
| 110 | CC[C@H](C)[C@H](NC(=O)[C@@H]1CCCN1C(=O)[C@@H](NC(=O)[C@@H](N)Cc1ccccc1)C(C)C)C(=O)N[C@@H](Cc1ccccc1)C(=O)N[C@H](C(=O)N[C@@H](Cc1ccc(O)cc1)C(=O)NCC(=O)N[C@@H](CCC(=O)O)C(=O)N[C@@H](CC(C)C)C(=O)N[C@@H](CCC(=O)O)C(=O)N[C@@H](CCCNC(=N)N)C(=O)N[C@@H](CC(C)C)C(=O)N[C@@H](CCC(N)=O)C(=O)N[C@@H](CCC(=O)O)C(=O)N[C@@H](CCCCN)C(=O)N[C@@H](CCC(=O)O)C(=O)N[C@@H](CCCNC(=N)N)C(=O)N[C@@H](CC(N)=O)C(=O)N[C@@H](CCCCN)C(=O)NCC(=O)N[C@@H](CCC(N)=O)C(=O)N[C@@H](CCO)C(=O)O)[C@@H](C)O [(11) -Glu--Leu--Hse] (H-FVPIFTYGELERLQEKERNKGQ[hSer]-OH) |  |
|  | CC[C@H](C)[C@H](NC(=O)[C@@H]1CCCN1C(=O)[C@@H](NC(=O)[C@@H](N)Cc1ccccc1)C(C)C)C(=O)N[C@@H](Cc1ccccc1)C(=O)N[C@H](C(=O)N[C@@H](Cc1ccc(O)cc1)C(=O)NCC(=O)N[C@@H](CCC(=O)O)C(=O)N[C@@H](CC(C)C)C(=O)N[C@@H](CCC(N)=O)C(=O)N[C@@H](CCCNC(=N)N)C(=O)N[C@@H](CCSC)C(=O)N[C@@H](CCC(N)=O)C(=O)N[C@@H](CCC(=O)O)C(=O)N[C@@H](CCCCN)C(=O)N[C@@H](CCC(=O)O)C(=O)N[C@@H](CCCNC(=N)N)C(=O)N[C@@H](CC(N)=O)C(=O)N[C@@H](CCCCN)C(=O)NCC(=O)N[C@@H](CCC(N)=O)C(=O)O)[C@@H](C)O [motilin, reference compound] | 100 |
